Results published in PubChem BioAssay (NCI).
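Cultured in 96-well plates, cells were exposed to test compound for 48 hours across five concentrations. The concentration for 50% growth inhibition is given as GI50. Definition used: TGI = concentration required for complete inhibition of growth.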

Columns and labels:
Assay in all cases: growth of human tumour cells (NCI), 48 h
[1] = system: HCT-15 colon
[2] = system: IGROV1 ovarian
[3] = system: 786-0 renal
[4] = system: SK-MEL-5 melanoma
[5] = system: NCI/ADR-RES ovarian
[6] = system: OVCAR-4 ovarian
[7] = system: HL-60(TB) leukemia
[8] = system: SF-268 CNS
[9] = system: HCC-2998 colon
[10] = system: SF-295 CNS
[11] = system: MALME-3M melanoma
[12] = system: NCI-H460 lung
[13] = system: K-562 leukemia
[14] = system: NCI-H522 lung
[15] = system: UO-31 renal
[16] = system: UACC-257 melanoma
[17] = system: MDA-MB-231 breast
[18] = system: KM12 colon
[19] = system: COLO 205 colon
[20] = system: NCI-H23 lung
[21] = system: UACC-62 melanoma
[22] = system: SNB-19 CNS
[23] = system: OVCAR-8 ovarian
[24] = system: RPMI-8226 leukemia
[25] = system: HOP-62 NSCLC
[26] = system: HS 578T breast
[27] = system: DU-145 prostate
[28] = system: MOLT-4 leukemia
[29] = system: A498 renal
[30] = system: SK-OV-3 ovarian
[31] = system: HT29 colon
[32] = system: CCRF-CEM leukemia
[33] = system: SW-620 colon
[34] = system: MCF7 breast
[35] = system: MDA-MB-435
[36] = system: SF-539 CNS
[37] = system: A549 NSCLC
[38] = system: CAKI-1 renal
[39] = system: ACHN renal
[40] = system: SNB-75 CNS
[41] = system: T-47D breast
[42] = system: BT-549 breast
[43] = system: LOX IMVI melanoma
[44] = system: RXF 393 renal
[45] = system: TK-10 renal
[46] = system: U251 CNS
[47] = system: NCI-H226 lung
[48] = system: OVCAR-5 ovarian
[49] = system: HCT-116 colon
[50] = system: HOP-92 NSCLC
[51] = system: SK-MEL-28 melanoma
[52] = system: SR leukemia
[53] = system: OVCAR-3 ovarian
[54] = system: M14 melanoma
[55] = system: SN12C renal
[56] = system: EKVX NSCLC
[57] = system: PC-3 prostate
[58] = system: SK-MEL-2 melanoma

SMILES: COc1ccc(-c2csc(NC(=O)c3cc(O)c(O)c(O)c3)n2)cc1
- GI50 [1]: 6.63 µM
- TGI [1]: > 33.3 µM
- GI50 [2]: 6.69 µM
- TGI [2]: 32.6 µM
- GI50 [3]: 11 µM
- TGI [3]: > 33.3 µM
- GI50 [4]: 6.04 µM
- TGI [4]: > 33.3 µM
- GI50 [5]: 11.2 µM
- TGI [5]: > 33.3 µM
- GI50 [6]: 7.27 µM
- TGI [6]: > 33.3 µM
- GI50 [7]: 8.28 µM
- TGI [7]: 23.9 µM
- GI50 [8]: 6.31 µM
- TGI [8]: > 33.3 µM
- GI50 [9]: 17.2 µM
- TGI [9]: > 33.3 µM
- GI50 [10]: 16.1 µM
- TGI [10]: > 33.3 µM
- GI50 [11]: 11.1 µM
- TGI [11]: > 33.3 µM
- GI50 [12]: 7.5 µM
- TGI [12]: > 33.3 µM
- GI50 [13]: 4.5 µM
- TGI [13]: > 33.3 µM
- GI50 [14]: 1.32 µM
- TGI [14]: 6.89 µM
- GI50 [15]: 1.65 µM
- TGI [15]: > 33.3 µM
- GI50 [16]: 11.9 µM
- TGI [16]: > 33.3 µM
- GI50 [17]: 5.18 µM
- TGI [17]: > 33.3 µM
- GI50 [18]: 13.2 µM
- TGI [18]: > 33.3 µM
- GI50 [19]: 10.8 µM
- TGI [19]: > 33.3 µM
- GI50 [20]: 11.2 µM
- TGI [20]: > 33.3 µM
- GI50 [21]: 5.87 µM
- TGI [21]: > 33.3 µM
- GI50 [22]: 6.02 µM
- TGI [22]: > 33.3 µM
- GI50 [23]: 7.52 µM
- TGI [23]: > 33.3 µM
- GI50 [24]: 5.59 µM
- TGI [24]: > 33.3 µM
- GI50 [25]: 8.92 µM
- TGI [25]: > 33.3 µM
- GI50 [26]: 19.3 µM
- TGI [26]: > 33.3 µM
- GI50 [27]: 9.59 µM
- TGI [27]: > 33.3 µM
- GI50 [28]: 2.3 µM
- TGI [28]: > 33.3 µM
- GI50 [29]: 9.61 µM
- TGI [29]: > 33.3 µM
- GI50 [30]: 17.2 µM
- TGI [30]: > 33.3 µM
- GI50 [31]: 18.6 µM
- TGI [31]: > 33.3 µM
- GI50 [32]: 1.55 µM
- TGI [32]: 17.6 µM
- GI50 [33]: 5.69 µM
- TGI [33]: > 33.3 µM
- GI50 [34]: 10.7 µM
- TGI [34]: > 33.3 µM
- GI50 [35]: 8.69 µM
- TGI [35]: > 33.3 µM
- GI50 [36]: 7.64 µM
- TGI [36]: > 33.3 µM
- GI50 [37]: 10.3 µM
- TGI [37]: > 33.3 µM
- GI50 [38]: 2.61 µM
- TGI [38]: > 33.3 µM
- GI50 [39]: 3.76 µM
- TGI [39]: > 33.3 µM
- GI50 [40]: 6.32 µM
- TGI [40]: > 33.3 µM
- GI50 [41]: 5.19 µM
- TGI [41]: 22.6 µM
- GI50 [42]: 10.9 µM
- TGI [42]: > 33.3 µM
- GI50 [43]: 6.57 µM
- TGI [43]: > 33.3 µM
- GI50 [44]: 7.31 µM
- TGI [44]: > 33.3 µM
- GI50 [45]: 6.36 µM
- TGI [45]: > 33.3 µM
- GI50 [46]: 4.09 µM
- TGI [46]: > 33.3 µM
- GI50 [47]: 9.59 µM
- TGI [47]: > 33.3 µM
- GI50 [48]: > 33.3 µM
- TGI [48]: > 33.3 µM
- GI50 [49]: 6.69 µM
- TGI [49]: > 33.3 µM
- GI50 [50]: 5.24 µM
- TGI [50]: 26.2 µM
- GI50 [51]: 13.2 µM
- TGI [51]: > 33.3 µM
- GI50 [52]: 1.89 µM
- TGI [52]: > 33.3 µM
- GI50 [53]: 12.2 µM
- TGI [53]: > 33.3 µM
- GI50 [54]: 10.4 µM
- TGI [54]: > 33.3 µM
- GI50 [55]: 7.42 µM
- TGI [55]: > 33.3 µM

SMILES: CC(C)c1ccc(NC(=S)NC(=O)c2ccccc2)cc1
- TGI [1]: 40.7 µM
- TGI [2]: 68.4 µM
- TGI [3]: 46.4 µM
- TGI [56]: > 100 µM
- TGI [4]: 27 µM
- TGI [5]: > 100 µM
- TGI [6]: 55.2 µM
- TGI [7]: 32.3 µM
- TGI [8]: 46.4 µM
- TGI [9]: 39.4 µM
- TGI [10]: 32.5 µM
- TGI [11]: 69.8 µM
- TGI [57]: > 100 µM
- TGI [12]: 40.2 µM
- TGI [13]: > 100 µM
- TGI [58]: 35.8 µM
- TGI [14]: 37.5 µM
- TGI [15]: 32.7 µM
- TGI [16]: 37.5 µM
- TGI [17]: 57 µM
- TGI [18]: 46.5 µM
- TGI [19]: 33.6 µM
- TGI [20]: 68 µM
- TGI [21]: 30.7 µM
- TGI [22]: > 100 µM
- TGI [23]: > 100 µM
- TGI [24]: > 100 µM
- TGI [25]: > 100 µM
- TGI [26]: > 100 µM
- TGI [27]: 70.8 µM
- TGI [28]: 52.3 µM
- TGI [29]: 74.1 µM
- TGI [30]: > 100 µM
- TGI [31]: 32.4 µM
- TGI [32]: 49.6 µM
- TGI [33]: 62.8 µM
- TGI [34]: 48.8 µM
- TGI [35]: 28.1 µM
- TGI [36]: > 100 µM
- TGI [37]: > 100 µM
- TGI [38]: 55.5 µM
- TGI [39]: 55.9 µM
- TGI [41]: 77.2 µM
- TGI [42]: 60.6 µM
- TGI [43]: 31.2 µM
- TGI [44]: 44.9 µM
- TGI [45]: 50.1 µM
- TGI [46]: 80.1 µM
- TGI [48]: > 100 µM
- TGI [49]: 39.3 µM
- TGI [50]: > 100 µM
- TGI [51]: 48.3 µM
- TGI [53]: 38.3 µM
- TGI [54]: 40.7 µM
- TGI [55]: > 100 µM
